Test results from paper PMC7200739, “Small molecule inhibition of human cGAS reduces total cGAMP output and cytokine expression in cells” (Scientific Reports, 2020).
pIC50: −log10 of the molar value.

Target: human CYCLIC GMP-AMP SYNTHASE (h-cGAS) (Homo sapiens, UniProt Q8N884)
Assay: IFN-luciferase reporter dose response in HT-DNA-stimulated THP-1 cells; LC-MS/MS of intracellular cGAMP in RAW KO-cGAS cells expressing h-cGAS
Format: cell-based

Sequence of human CYCLIC GMP-AMP SYNTHASE (h-cGAS) (Q8N884 whole entry): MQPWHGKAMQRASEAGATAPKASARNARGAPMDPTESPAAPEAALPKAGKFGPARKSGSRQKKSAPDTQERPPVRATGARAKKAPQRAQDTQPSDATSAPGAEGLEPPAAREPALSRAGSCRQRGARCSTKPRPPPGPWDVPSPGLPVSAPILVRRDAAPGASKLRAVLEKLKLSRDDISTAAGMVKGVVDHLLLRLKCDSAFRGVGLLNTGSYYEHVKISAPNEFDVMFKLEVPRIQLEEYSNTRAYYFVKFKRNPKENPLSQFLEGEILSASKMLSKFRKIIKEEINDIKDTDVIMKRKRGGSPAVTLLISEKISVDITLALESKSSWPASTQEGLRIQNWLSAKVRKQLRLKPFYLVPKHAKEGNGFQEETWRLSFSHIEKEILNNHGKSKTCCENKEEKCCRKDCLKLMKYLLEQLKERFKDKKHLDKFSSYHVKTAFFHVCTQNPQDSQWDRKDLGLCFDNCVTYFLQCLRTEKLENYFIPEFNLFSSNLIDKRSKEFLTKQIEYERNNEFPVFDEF

RU.521 was tested, and the pIC50 was about 6.10.
